Results as given in patent publication US20060122267A1, “Compositions and methods for attenuating mitochondria-mediated cell injury” (priority 2003, published 2006).

Columns and labels:
[1] = molecular target: T1, mitochondrial complex I (Rattus norvegicus, UniProt Q66HF1); assay: Complex I S-nitrosation: blue-native gel isolation followed by chemiluminescent S-nitrosothiol analysis; type: biochemical; conditions: 100 μM treatment
T1 construct: Rat heart mitochondria were isolated using differential centrifugation; from tissue; host or cells: rat heart mitochondria (male Sprague-Dawley rats)
Excerpt: Efforts to detect S-nitrosation within mitochondrial complex I itself relied on isolating the complex using a modified blue-native gel electrophoresis method, followed by chemiluminescent S-nitrosothiol analysis. […] Chemiluminescent analysis of excised gel bands gave an S-nitrosothiol profile of the gel, with four major peaks. The first of these was in a gel segment enriched in complex I.
Assuming heart mitochondria contain ˜50 pmol complex I per mg protein (Schagger & Pfeiffer (2001) J. Biol. Chem. 276:37861-37867), it was observed that S-nitrosation plateaud at a ˜7:1 mol/mol ratio (i.e., 7 mols S-nitrosothiol per mol complex I), while maximum complex I inhibition was ˜20-25%. This apparent mis-match between the stoichiometry of S-nitrosation (7:1) and the degree of inhibition (25%) may reflect S-nitrosation of complex I on multiple subunits. […]
Chemiluminescent analysis of S-nitrosothiol content was performed on samples originating from blue-native gels, intact mitochondria and SUPEROSE™ 6 chromatography fractions, according to known methodologies (Yang, et al. (2003) Free Radic. Res. 37:1-10). […] Each sample was run in duplicate and quantified using a standard curve created with known concentrations of NaNO2.

[2] = test system: mitochondrial proteins; assay: Biotin-switch analysis of mitochondrial protein S-nitrosation; type: biochemical, rat
Procedure: Rat heart mitochondria were isolated using differential centrifugation (Tompkins, et al. (2005) Biochim. Biophys. Acta PMID: 16278076). Protein was determined by the Folin-phenol method (Lowry, et al. (1951) J. Bio. Chem. 193:265-75) against a standard curve constructed using bovine serum albumin. Mitochondrial incubations and all subsequent steps were performed in the dark. One mg of mitochondrial protein was suspended in 1 mL of mitochondrial respiration buffer (Tompkins, et al. (2005) supra) containing respiratory substrates glutamate (5 mM), malate (2.5 mM) and succinate (5 mM). […] Samples were centrifuged (5 minutes, 14,000×g), and supernatants removed. The pellets were then resuspended in 1 mL of respiration buffer, and centrifuged again. Pellets were frozen in liquid N2 for subsequent analysis. For ONOO^− treatments, 4 μL of 25 mM ONOO^− stock (100 μM final concentration) was added the cap of the reaction tube, the cap quickly closed and the tube shaken immediately. The process was then repeated twice at 30 second intervals, for a total of 3 additions. Mitochondria were then pelleted, washed, and frozen as for S-nitrosoglutathione samples. Complex I activity was assayed as the rotenone-sensitive oxidation of NADH, at 340 nm in the presence of coenzyme Q1 (Borutaite, et al. (2000) supra). Complex IV was assayed by monitoring the cyanide-sensitive first-order oxidation of reduced cytochrome c, at 550 nm according to established methods (Cleeter, et al. (1994) supra).
For biotin-switch analysis, intact mitochondrial pellets (1 mg protein solubilized in extraction buffer) or chromatography column fractions were analyzed in accordance with known methods (Jaffrey & Snyder (2001) supra). Samples were separated in duplicate on non-reducing SDS-PAGE gels; half the gel was stained with COOMASSIE® blue, and the other half blotted and probed with streptavidin-HRP and ECL™ detection (GE biosciences). Blots and stained gels were aligned, and S-nitrosated proteins excised, trypsinized, and identified by peptide mass fingerprinting. Mass spectra (MALDI-TOF) were analyzed using the MASCOT™ algorithm available on the world-wide web at matrixscience.com.

T1 sequence (Q66HF1 24-727, one chain of several): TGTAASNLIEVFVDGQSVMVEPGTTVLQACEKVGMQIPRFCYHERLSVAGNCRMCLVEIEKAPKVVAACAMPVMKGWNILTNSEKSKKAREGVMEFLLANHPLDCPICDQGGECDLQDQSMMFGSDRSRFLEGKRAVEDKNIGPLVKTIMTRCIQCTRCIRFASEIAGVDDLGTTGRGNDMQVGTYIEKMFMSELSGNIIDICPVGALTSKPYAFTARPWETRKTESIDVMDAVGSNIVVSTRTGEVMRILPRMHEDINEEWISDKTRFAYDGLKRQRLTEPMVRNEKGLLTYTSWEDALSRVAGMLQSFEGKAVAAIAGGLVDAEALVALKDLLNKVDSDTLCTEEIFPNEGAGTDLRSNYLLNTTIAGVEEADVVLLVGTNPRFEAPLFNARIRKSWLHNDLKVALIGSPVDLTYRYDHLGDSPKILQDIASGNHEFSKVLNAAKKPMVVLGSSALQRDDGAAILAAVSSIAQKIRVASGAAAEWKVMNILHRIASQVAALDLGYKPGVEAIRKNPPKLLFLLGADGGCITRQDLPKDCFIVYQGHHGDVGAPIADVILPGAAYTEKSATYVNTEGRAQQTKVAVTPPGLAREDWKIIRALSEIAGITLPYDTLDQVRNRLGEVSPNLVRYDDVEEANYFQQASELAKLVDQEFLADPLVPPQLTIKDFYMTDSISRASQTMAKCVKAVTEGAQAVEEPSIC

N[C@@H](CCC(=O)N[C@@H](CSN=O)C(=O)NCC(=O)O)C(=O)O [S-nitrosoglutathione]
share of total S-nitrosothiol originating from complex I [1]: ~20%
S-nitrosothiol originating from complex I ([1]; per mg mitochondrial protein): 350 pmols
S-nitrosation of entire mitochondrial protein extract, comparison of NO donors ([2]; S-nitrosoglutathione 1 mM, DETA-NONOate 2 mM, ONOO- 3 additions of 100 μM, 37° C., 40 minutes): far more S-nitrosation than DETA-NONOate or ONOO^−
concentration at which formation of protein bound S-nitrosothiol saturates ([2]; biotin-switch and chemiluminescent data together): ~250 µM
concentration at which plateau of mitochondrial protein S-nitrosation is reached ([2]; dose response over 50-250 μM): ~200 µM
